# According to publication PMC12171880, “Selectivity and Safety Characterization of a Xanthine–Imidazothiazole Lead Structure: a Novel Tryptophan Hydroxylase Inhibitor of Peripheral Serotonin Synthesis” (ACS Pharmacology & Translational Science, 2025):
# Tests used:
# [1] = target: T1, human recombinant PAH (Homo sapiens, UniProt P00439); experiment: PAH enzymatic activity assay (fluorescence, 96-well); type: biochemical
# T1 construct: expression vectors for full-length human PAH (UniProt entry P00439); made in house; host or cells: E. coli T7 Express (NEB) with pRARE2
# T1 sequence (P00439 1-452): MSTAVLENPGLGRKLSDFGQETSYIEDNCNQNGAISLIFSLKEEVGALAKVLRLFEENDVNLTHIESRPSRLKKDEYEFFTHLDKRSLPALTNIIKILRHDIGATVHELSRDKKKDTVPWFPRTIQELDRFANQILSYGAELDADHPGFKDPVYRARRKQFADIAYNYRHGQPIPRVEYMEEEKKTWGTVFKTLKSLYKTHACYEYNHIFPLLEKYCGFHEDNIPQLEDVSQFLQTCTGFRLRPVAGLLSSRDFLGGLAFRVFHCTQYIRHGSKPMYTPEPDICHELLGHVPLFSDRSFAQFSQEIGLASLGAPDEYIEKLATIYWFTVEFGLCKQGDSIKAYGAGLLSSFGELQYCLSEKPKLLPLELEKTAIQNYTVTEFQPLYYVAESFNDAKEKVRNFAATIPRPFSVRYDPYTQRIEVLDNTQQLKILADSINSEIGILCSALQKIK
# [2] = system: A3 receptor; design: method as in EMA/508026/2017; conditions: 10 μM; ref EMA/508026/2017; cited from earlier work
# [3] = system: 5-HT1B receptor; design: method as in EMA/508026/2017; conditions: 10 μM; ref EMA/508026/2017; cited from earlier work
# [4] = target: T2, human recombinant TPH1 (Homo sapiens, UniProt P17752); experiment: TPH1 enzymatic activity assay (fluorescence, 96-well); type: biochemical
# T2 construct: Full-length human TPH1 and TPH2 (UniProt entries P17752 and Q8IWU9); MBP (N); made in house
# T2 sequence (P17752 1-444): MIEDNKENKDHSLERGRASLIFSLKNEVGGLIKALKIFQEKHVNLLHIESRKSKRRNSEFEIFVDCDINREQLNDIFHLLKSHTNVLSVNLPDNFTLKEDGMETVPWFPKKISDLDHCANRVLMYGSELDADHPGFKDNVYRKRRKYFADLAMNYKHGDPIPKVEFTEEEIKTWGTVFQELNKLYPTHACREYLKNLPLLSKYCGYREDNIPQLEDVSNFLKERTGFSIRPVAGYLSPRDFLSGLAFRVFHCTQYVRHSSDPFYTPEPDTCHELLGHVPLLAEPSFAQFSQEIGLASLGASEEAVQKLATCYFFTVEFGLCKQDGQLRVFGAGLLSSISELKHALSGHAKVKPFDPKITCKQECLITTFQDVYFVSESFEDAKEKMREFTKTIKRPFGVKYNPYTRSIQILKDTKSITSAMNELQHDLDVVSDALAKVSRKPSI
# [5] = target: T3, human recombinant TPH2 (Homo sapiens, UniProt Q8IWU9); experiment: TPH2 enzymatic activity assay (fluorescence, 96-well); type: biochemical
# T3 construct: Full-length human TPH1 and TPH2 (UniProt entries P17752 and Q8IWU9); MBP (N); made in house
# T3 sequence (Q8IWU9 1-490): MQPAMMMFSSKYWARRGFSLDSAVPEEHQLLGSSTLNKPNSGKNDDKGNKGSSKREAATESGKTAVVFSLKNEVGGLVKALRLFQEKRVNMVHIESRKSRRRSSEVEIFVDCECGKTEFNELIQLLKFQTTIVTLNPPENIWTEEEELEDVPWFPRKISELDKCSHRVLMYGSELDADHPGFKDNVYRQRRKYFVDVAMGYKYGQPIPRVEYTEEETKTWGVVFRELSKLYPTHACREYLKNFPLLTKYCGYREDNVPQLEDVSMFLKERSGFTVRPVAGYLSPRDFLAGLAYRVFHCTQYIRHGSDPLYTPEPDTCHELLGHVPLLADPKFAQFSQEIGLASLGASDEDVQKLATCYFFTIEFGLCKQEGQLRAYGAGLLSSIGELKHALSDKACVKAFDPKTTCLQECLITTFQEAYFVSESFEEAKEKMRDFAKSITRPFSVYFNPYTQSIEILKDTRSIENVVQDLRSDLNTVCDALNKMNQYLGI
# [6] = system: 5-HT2A receptor; design: method as in EMA/508026/2017; conditions: 10 μM; ref EMA/508026/2017; cited from earlier work
# [7] = target: T4, recombinant human TH (Homo sapiens, UniProt P07101); experiment: TH enzymatic activity assay (fluorescence, 96-well); type: biochemical
# T4 construct: For purification of MBP-tagged full-length PAH and TH; made in house; host or cells: E. coli T7 Express (NEB) with pRARE2
# Experimental: The TH enzymatic activity assay was performed using a 96-well plate format (Greiner). […] To initiate the reaction, L-Tyr (Fluka) was added (final concentration, 30 μM). The assay contained positive control samples (complete reaction mix, no inhibitor test compound), negative control samples (reaction mix without BH4), and an additional L-Tyr control (reaction mix without BH4, spiked with 25.5 μM or 27 μM L-Tyr) to measure the progression of the enzymatic reaction. All samples were measured in technical triplicates. The TH assay was performed at RT for 30 min. Depletion of the reaction substrate (L-Tyr) was continuously monitored at 240 s intervals by fluorescence measurements (ex.280 nm/em.306 nm) for 12 min using a Tecan Infinite 200 plate reader.
# Negative control values (no enzyme or no substrate) were deducted from the positive control (full enzyme activity) and test compound values. Subsequently, the data were normalized (Pos. Ctr. = 100% of the enzyme activity). The results were further analyzed with GraphPad Prism 9 using the nonlinear regression model: log(inhibitor) vs. response−variableslope(fourparameters) which fits the following equation to the data: Y=Bottom+(Top−Bottom)/(1+10^((logIC50−X)×HillSlope))
# The IC50 values were calculated from three independent experiments and are given as the mean ± SD.
# [8] = system: 75 human receptors, enzymes, and ion channels; design: method as in EMA/508026/2017; conditions: ref EMA/508026/2017; cited from earlier work
# [9] = 10 nM to 30 μM, 175 μM L-Phe, 10 μM BH4
# T4 sequence (P07101 whole entry): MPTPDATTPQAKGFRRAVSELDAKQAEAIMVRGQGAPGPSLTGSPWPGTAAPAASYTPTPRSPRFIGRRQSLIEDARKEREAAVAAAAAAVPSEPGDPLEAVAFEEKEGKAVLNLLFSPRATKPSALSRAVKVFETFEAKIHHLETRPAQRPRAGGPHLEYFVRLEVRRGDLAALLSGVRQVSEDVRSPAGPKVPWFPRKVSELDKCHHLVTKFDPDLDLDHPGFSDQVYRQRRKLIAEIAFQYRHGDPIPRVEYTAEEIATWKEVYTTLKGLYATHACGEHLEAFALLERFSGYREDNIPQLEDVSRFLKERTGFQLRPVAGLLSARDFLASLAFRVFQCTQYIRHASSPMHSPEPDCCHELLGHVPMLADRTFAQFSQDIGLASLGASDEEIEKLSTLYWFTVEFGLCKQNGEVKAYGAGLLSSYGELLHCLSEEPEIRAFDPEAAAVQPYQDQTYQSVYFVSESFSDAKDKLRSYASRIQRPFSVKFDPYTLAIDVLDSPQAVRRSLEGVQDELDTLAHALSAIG
compound,measurement,setting,value
"Cc1ccn(-c2cc(Cl)ccc2[C@@H](Oc2cc(-c3ccc(C[C@H](N)C(=O)O)cc3)nc(N)n2)C(F)(F)F)n1 [LP778902, Telotristat]",Mean PAH activity [%],[1]; 10 nM,99.68%
same,IC50,[1]; [9],2.69 µM
same,Mean PAH activity [%],[1]; 30 nM,96.34%
same,Mean PAH activity [%],[1]; 100 nM,95.74%
same,Mean PAH activity [%],[1]; 300 nM,92.85%
same,Mean PAH activity [%],[1]; 1 μM,79.01%
same,Mean PAH activity [%],[1]; 3 μM,42.58%
same,Mean PAH activity [%],[1]; 10 μM,18.22%
same,Mean PAH activity [%],[1]; 30 μM,7.18%
same,IC50,[1]; supplementary CSV,2.69 µM
same,inhibition at A3 receptor,[2],more than 50%
same,inhibition at 5-HT1B receptor,[3],more than 50%
same,Mean TPH1 activity [%],[4]; 3 nM,99.75%
same,Mean TPH1 activity [%],[4]; 10 nM,100.85%
same,Mean TPH1 activity [%],[4]; 30 nM,101.72%
same,Mean TPH1 activity [%],[4]; 100 nM,100.00%
same,Mean TPH1 activity [%],[4]; 300 nM,91.38%
same,Mean TPH1 activity [%],[4]; 1 μM,12.20%
same,Mean TPH1 activity [%],[4]; 3 μM,4.78%
same,Mean TPH1 activity [%],[4]; 10 μM,5.34%
same,Mean TPH2 activity [%],[5]; 3 nM,99.93%
same,Mean TPH2 activity [%],[5]; 10 nM,100.78%
same,Mean TPH2 activity [%],[5]; 30 nM,99.88%
same,Mean TPH2 activity [%],[5]; 100 nM,97.93%
same,Mean TPH2 activity [%],[5]; 300 nM,92.18%
same,Mean TPH2 activity [%],[5]; 1 μM,10.61%
same,Mean TPH2 activity [%],[5]; 3 μM,3.90%
same,Mean TPH2 activity [%],[5]; 10 μM,3.17%
same,inhibition at 5-HT2A receptor,[6],more than 50%
same,Mean TH activity [%],[7]; 10 nM,91.23%
same,IC50,"[7]; 10 nM to 30 μM, 30 μM L-Tyr, 5 μM BH4",8.11 µM
same,Mean TH activity [%],[7]; 30 nM,96.35%
same,Mean TH activity [%],[7]; 100 nM,91.73%
same,Mean TH activity [%],[7]; 300 nM,96.86%
same,Mean TH activity [%],[7]; 1 μM,89.03%
same,Mean TH activity [%],[7]; 3 μM,79.57%
same,Mean TH activity [%],[7]; 10 μM,43.11%
same,Mean TH activity [%],[7]; 30 μM,14.34%
"CCOC(=O)[C@@H](N)Cc1ccc(-c2cc(O[C@H](c3ccc(Cl)cc3-n3ccc(C)n3)C(F)(F)F)nc(N)n2)cc1 [LX1606, Telotristat ethyl]",Mean PAH activity [%],[1]; 10 nM,96.86%
same,IC50,[1]; [9],7.91 µM
same,Mean PAH activity [%],[1]; 30 nM,97.35%
same,Mean PAH activity [%],[1]; 300 nM,94.55%
same,Mean PAH activity [%],[1]; 1 μM,91.16%
same,Mean PAH activity [%],[1]; 3 μM,64.20%
same,Mean PAH activity [%],[1]; 10 μM,37.02%
same,Mean PAH activity [%],[1]; 30 μM,33.74%
same,"PAH activity, not reduced below",[1]; highest tested concentration (30 μM),≥ 30%
same,IC50,[1]; supplementary CSV,7.91 µM
same,number of 75 receptors with over 50% of the activity inhibited,[8],16
same,IC50,"[4]; 3 nM to 10 μM, 15 μM L-Trp, 20 μM BH4",1.44 µM
same,Mean TH activity [%],[7]; 10 nM,94.16%
same,Mean TH activity [%],[7]; 30 nM,93.57%
same,Mean TH activity [%],[7]; 100 nM,94.52%
same,Mean TH activity [%],[7]; 300 nM,91.31%
same,Mean TH activity [%],[7]; 1 μM,96.27%
same,Mean TH activity [%],[7]; 3 μM,96.83%
same,Mean TH activity [%],[7]; 10 μM,87.53%
same,Mean TH activity [%],[7]; 30 μM,71.72%
same,reduction of TH activity compared to the positive control,[7]; two highest concentrations (10 and 30 μM),≤ 30%
